Source: patent US20120301551A1, “COMPOUNDS AND COMPOSITIONS FOR TREATING NEURONAL DEATH OR NEUROLOGICAL DYSFUNCTION” (Neurotech Pharmaceuticals Co., Ltd., priority 2005, published 2012)
Where two headings read alike, the source gives them in different places.

Assays:
cerebral cortical cell = assay: anti-oxidant effect: neuron protecting effect against Fe+2 (50 uM FeCl2); format: cell-based; conditions: cerebral cortical cell treated by 50 uM FeCl2
Procedure: After cerebral cortical cell was treated by 50 uM FeCl2 to induce oxidative stress, the anti-oxidant effects of many compounds were evaluated. Results were shown as IC50 (uM) (Item A of Table 3 below).
(§1) In the Table 3, A, B and C mean neuron protecting effect against Fe^+2, suppressing effect on production of NO and suppressing effect on production of beta-amyloid, respectively. The term “ND” means “Not determined.”

[1] = system: BV-2 cell line (production of NO); assay: anti-inflammatory effect: suppression of LPS-induced production of NO; format: cell-based; conditions: BV-2 cell line treated by LPS; for IC50: read-out: IC50 (uM) B: suppressing effect on production of NO
Procedure: After BV-2 cell line was treated by LPS to induce production of NO, the anti-inflammatory effects of many compounds were evaluated. Results were shown as IC50 (uM) (Item B of Table 3 below).
as §1

beta-amyloid (Aβ42) = assay: suppression of beta-amyloid (Aβ42) production in CHO cells (ELISA); format: cell-based, Chinese hamster
Procedure: The suppressing effects of many drug candidates on production of beta-amyloid were evaluated in CHO cell line having the increased level of beta-amyloid. Results were shown as IC50 (uM) (Item C of Table 3 below).
as §1
Cells were treated with increasing concentrations of various chemicals in Chinese hamster ovary (CHO) cells stably transfected with human wild APP695 and the PS1ΔExon9, and analyzed Aβ42 levels in culture medium by colorimetric sandwich ELISA kit (BIOSOURCE, Camarillo, Calif.). In CHO cells, IC50 of Chemical—01-08 on Aβ42 lowering effect was 20-100 uM (Table 4).

[2] = system: mixed cortical cell cultures containing neurons and glia; assay: Fe2+-induced free radical neurotoxicity in mixed cortical cell cultures (LDH release); format: cell-based, mouse; conditions: 50 μM FeCl2, neuronal death 24 hr later (LDH), read-out: IC50 (50% protection against Fe^2+-induced free radical neurotoxicity)
Procedure: Mouse cortical cell cultures (DIV 11-15) were exposed to 50 μM Fe^2+ or 10 mM BSO, alone or with inclusion of 5 mM Li^+. Neuronal death was analyzed 24 hr later by measuring levels of LDH released into the bathing medium, mean±SEM (n=9-12 culture wells per condition).
Mouse cortical cell cultures (DIV 11-15) were exposed to 30 μM Fe^2+ or 10 mM BSO, alone or in the presence of 1 μM 2-hydroxy TTBA, 10-100 μM vitamin E, or 5 mM Li^+.
For mixed neuron-glia culture, mouse cerebral cortices were removed from brains of the 11-15 day-old-fetal mice (E11-15), gently triturated and plated on 24 well plates (2×10^5 cells/plate) precoated with 100 μg/ml poly-D-lysine and 4 pg/ml laminin. Cultures were maintained at 37° C. in a humidified 5% CO2 atmosphere.
After 7-8 days in vitro (DIV 7-8), 10 μM cytosine arabinofuranoside (Ara-C) was included to halt overgrowth of glia. The drug treatment was carried on DIV 11-15 cortical cell culture.
Oxidative stress was induced by exposing mixed cortical cell cultures containing neurons and glia (DIV 11-15) to 50 μM FeCl2, a hydroxyl radical-producing transition metal via a Fenton reaction, or 10 mM DL-buthionine-[S,R]-sulfoximine (BSO), a glutathione depleting agent.

[3] = CHO cell line having the increased level of beta-amyloid
[4] = Cricetulus griseus, CHO cells stably transfected with human wild APP695 and PS1ΔExon9, culture medium, ELISA, read-out: Aβ42 lowering effect (IC50)
[5] = Cricetulus griseus, CHO cell line having the increased level of beta-amyloid, read-out: IC50 (uM) C: suppressing effect on production of beta-amyloid
[6] = CHO cell line having the increased level of beta-amyloid, read-out: IC50 (uM) C: suppressing effect on production of beta-amyloid

| IC50 (cerebral cortical cell; Neuron) | IC50 ([1]; Mus musculus) | Structure (SMILES) | also measured |
| --- | --- | --- | --- |
| 0.27 µM | > 100 µM | O=C(O)c1cc(NCCc2cc(F)ccc2C(F)(F)F)ccc1O [Compound 37] |  |
| 0.26 µM | 82.6 µM | O=C(O)c1cc(NCCc2cccc(F)c2)ccc1O [Compound 19] |  |
| 1.04 µM | > 100 µM | O=C(O)c1cc(NCCc2ccccc2)ccc1O [Compound 02] |  |
| 0.39 µM | 23.6 µM | Cc1cccc(CCNc2ccc(O)c(C(=O)O)c2)c1 [Compound 30] | IC50 (uM) C: suppressing effect on production of beta-amyloid (beta-amyloid (Aβ42); [3]): No |
| 0.11 µM | 34.9 µM | O=C(O)c1cc(NCCc2ccccc2F)ccc1O [Compound 23] |  |
| 0.31 µM |  | O=C(O)c1cc(NCCc2ccc(F)cc2)ccc1O [Compound 39] | IC50 (uM) B: suppressing effect on production of NO [1]: No |
| 0.035 µM | 67.5 µM | O=C(O)c1cc(NCCCc2ccc(F)c(F)c2)ccc1O [Compound 35] | IC50 (beta-amyloid (Aβ42); [5]): > 100 µM |
| 0.23 µM | 76.5 µM | O=C(O)c1cc(NCCc2cccc(Cl)c2)ccc1O [Compound 08] |  |
| 0.27 µM | 82.2 µM | O=C(O)c1cc(NCCc2cc(F)ccc2F)ccc1O [Compound 06] |  |
| 0.25 µM | 135 µM | O=C(O)c1cc(NCCc2cc(F)cc(F)c2)ccc1O [Compound 22] |  |
| 0.1 µM | 20.7 µM | O=C(O)c1cc(NCCc2ccc(C(F)(F)F)c(F)c2)ccc1O [Compound 45] |  |
| 0.23 µM |  | O=C(O)c1cc(NCCc2cccc(Br)c2)ccc1O [Compound 10] | IC50 (uM) B: suppressing effect on production of NO [1]: No |
| 0.25 µM | 4.08 µM | O=C(O)c1cc(NCCc2ccc(F)cc2C(F)(F)F)ccc1O [Compound 31] |  |
| 0.13 µM | 98.8 µM | O=C(O)c1cc(NCCc2cc(F)cc(C(F)(F)F)c2)ccc1O [Compound 34] | IC50 (uM) C: suppressing effect on production of beta-amyloid (beta-amyloid (Aβ42); [3]): No |
| 0.11 µM | > 100 µM | O=C(O)c1cc(NCCc2ccc(Cl)cc2)ccc1O [Compound 14] |  |
| 0.1 µM | 63.2 µM | O=C(O)c1cc(NCCc2ccc(Cl)c(Cl)c2)ccc1O [Compound 18] |  |
| 0.21 µM | > 300 µM | O=C(O)c1cc(NCCc2ccc(F)cc2F)ccc1O [Compound 17] |  |
| 0.32 µM | 23.7 µM | O=C(O)c1cc(NCCc2ccc(F)c(F)c2)ccc1O [Compound 21] | IC50 (beta-amyloid (Aβ42); [5]): 68 µM |
| 0.24 µM | 23.9 µM | Cc1ccc(CCNc2ccc(O)c(C(=O)O)c2)cc1 [Compound 11] |  |
| 0.12 µM | 20.3 µM | O=C(O)c1cc(NCCCc2ccc(F)cc2)ccc1O [Compound 28] |  |
| 0.06 µM | 99.8 µM | O=C(O)c1cc(NCCc2ccc(C(F)(F)F)cc2F)ccc1O [Compound 36] | IC50 (beta-amyloid (Aβ42); [5]): > 100 µM |
| 0.32 µM |  | COc1cccc(CCNc2ccc(O)c(C(=O)O)c2)c1 [Compound 15] | IC50 (uM) B: suppressing effect on production of NO [1]: No |
| 0.36 µM | 62.7 µM | O=C(O)c1cc(NCCc2c(F)cccc2F)ccc1O [Compound 12] |  |

The remaining lines, values behind:

| Structure (SMILES) | IC50 (cerebral cortical cell; Neuron) | IC50 ([1]; Mus musculus) | also measured |
| --- | --- | --- | --- |
| O=C(O)c1cc(NCCc2cc(C(F)(F)F)ccc2F)ccc1O [Compound 38] | 0.069 µM | 35 µM | IC50 (uM) C: suppressing effect on production of beta-amyloid (beta-amyloid (Aβ42); [3]): No |
| O=C(O)c1cc(NCCCc2ccc([N+](=O)[O-])cc2)ccc1O [NPPAA, 5-[3-(4-nitrophenyl)-n-propyl]aminosalicylic acid] |  |  | IC50 ([2]; Mus musculus, Neuron): 0.2 µM |
| O=C(O)c1cc(NCCc2ccc(Cl)cc2Cl)ccc1O [chemical 24, 5-[2-(2,4-Dichloro-phenyl)-ethylamino]-2-hydroxy-benzoic acid] |  |  | IC50 (beta-amyloid (Aβ42); [4]): 29.2 µM |
| O=C(O)c1cc(NCc2ccc(F)cc2)ccc1O [FBAS] |  |  | IC50 [2]: 0.3 µM |
| COc1ccc(CCNc2ccc(O)c(C(=O)O)c2)cc1 [Compound 05] | 0.11 µM | 60.3 µM |  |
| O=C(O)c1cc(NCCc2ccccc2C(F)(F)F)ccc1O [Compound 03] | 0.1 µM | 33 µM |  |
| O=C(O)c1cc(NCCc2ccc(O)cc2)ccc1O [Compound 47] |  |  | IC50 (cerebral cortical cell): 0.32 µM; IC50 [1]: 11.5 µM |
| O=C(O)c1cc(NCc2ccc(Cl)cc2)ccc1O [CBAS] |  |  | IC50 [2]: 0.2 µM |
| O=C(O)c1cc(NCCCc2ccc(C(F)(F)F)cc2)ccc1O [Compound 42] | 0.062 µM | 6.7 µM | IC50 (beta-amyloid (Aβ42); [5]): 68.3 µM |
| O=C(O)c1cc(NCCc2ccc(Cl)cc2Cl)ccc1O [Compound 24] | 0.031 µM | 40.8 µM | IC50 (beta-amyloid (Aβ42); [5]): 29.2 µM |
| CCOc1ccc(CCNc2ccc(O)c(C(=O)O)c2)cc1 [Compound 29] | 0.18 µM | 42.2 µM |  |
| O=C(O)c1cc(NCCCc2ccc(Cl)c(Cl)c2)ccc1O [chemical 43, 5-[3-(3,4-Dichloro-phenyl)-propylamino]-2-hydroxy-benzoic acid] |  |  | IC50 (beta-amyloid (Aβ42); [4]): 111 µM |
| Cc1ccccc1CCNc1ccc(O)c(C(=O)O)c1 [Compound 25] | 0.07 µM | 18.6 µM | IC50 (uM) C: suppressing effect on production of beta-amyloid (beta-amyloid (Aβ42); [3]): No |
| Cc1c(C)c2c(c(C)c1O)CCC(C)(C(=O)O)O2 (centres unmarked) [Trolox, reference compound] |  |  | IC50 ([2]; Mus musculus, Neuron): 3.34 µM |
| O=C(O)c1cc(NCCCCc2ccccc2)ccc1O [Compound 40] | 0.073 µM | > 100 µM | IC50 (uM) C: suppressing effect on production of beta-amyloid (beta-amyloid (Aβ42); [3]): No |
| O=C(O)c1cc(NCCc2ccc(OC(F)(F)F)cc2)ccc1O [chemical 16, 2-Hydroxy-5-[2-(4-trifluoromethoxy-phenyl)-ethylamino]-benzoic acid] |  |  | IC50 (beta-amyloid (Aβ42); [4]): 67.5 µM |

| Structure (SMILES) | IC50 (cerebral cortical cell; Neuron) | IC50 ([1]; Mus musculus) | also measured |
| --- | --- | --- | --- |
| O=C(O)c1cc(NCCCc2ccc(Cl)c(Cl)c2)ccc1O [Compound 43] | 0.04 µM | 51.8 µM | IC50 (beta-amyloid (Aβ42); [5]): 111 µM |
| O=C(O)c1cc(NCCc2ccccc2[N+](=O)[O-])ccc1O [Compound 20] | 0.4 µM | 12.5 µM |  |
| O=C(O)c1cc(NCCc2cc(C(F)(F)F)cc(C(F)(F)F)c2)ccc1O [Compound 27] |  |  | IC50 (cerebral cortical cell): 0.044 µM; IC50 [1]: 6.25 µM; IC50 (beta-amyloid (Aβ42); [6]): 109 µM |
| O=C(O)c1cc(NCCCc2ccc(Cl)cc2Cl)ccc1O [Compound 44] | 0.12 µM | 51 µM |  |
| Cc1ccc(CCCNc2ccc(O)c(C(=O)O)c2)cc1 [Compound 41] | 0.11 µM | 26.5 µM | IC50 (uM) C: suppressing effect on production of beta-amyloid (beta-amyloid (Aβ42); [3]): No |
| COc1ccc(CNc2ccc(O)c(C(=O)O)c2)cc1 [MBAS, 5-(4-methoxybenzyl)aminosalicylic acid] |  |  | IC50 ([2]; Mus musculus, Neuron): 1.42 µM |
| O=C(O)c1cc(NCCc2ccccc2Cl)ccc1O [Compound 07] | 0.11 µM | 60.8 µM | IC50 (beta-amyloid (Aβ42); [5]): 19.1 µM |
| O=C(O)c1cc(NCCc2cccc(C(F)(F)F)c2)ccc1O [Compound 04] | 0.08 µM | 26.1 µM |  |
| O=C(O)c1cc(NCCc2ccc(F)c(C(F)(F)F)c2)ccc1O [Compound 33] |  |  | IC50 (cerebral cortical cell): 0.036 µM; IC50 [1]: 31.1 µM; IC50 (beta-amyloid (Aβ42); [6]): > 100 µM |
| O=C(O)c1cc(NCCc2ccc(C(F)(F)F)cc2)ccc1O [Compound 01] | 0.099 µM | 24.3 µM | IC50 (beta-amyloid (Aβ42); [5]): 19.6 µM |
| COc1ccccc1CCNc1ccc(O)c(C(=O)O)c1 [Compound 13] | 0.27 µM | 94 µM |  |
| O=C(O)c1cc(NCCCc2ccccc2)ccc1O [Compound 32] | 0.29 µM | 85.4 µM |  |
| O=C(O)c1cc(NCCc2ccccc2Br)ccc1O [Compound 09] | 0.14 µM | 78.8 µM |  |
| O=C(O)c1cc(NCCc2cccc(C(F)(F)F)c2F)ccc1O [Compound 26] | 0.13 µM | 61.7 µM | IC50 (beta-amyloid (Aβ42); [5]): > 100 µM |
| O=C(O)c1cc(NCCc2ccc(F)c(F)c2)ccc1O [chemical 21, 5-[2-(3,4-Difluoro-phenyl)-ethylamino]-2-hydroxy-benzoic acid] |  |  | IC50 (beta-amyloid (Aβ42); [4]): 68 µM |
